{"source": "paper PMC12766724", "about": "“Synthesis, Anthelmintic Activity, and Mechanism of Action of 5‑Aryl‑1H‑indoles” (Journal of Agricultural and Food Chemistry, 2025)", "key": {"[1]": {"test_system": "C. elegans wild-type and MCII mutant strains", "assay": "Scoring of developmental rates, comparison of strains", "type": "in vivo, Caenorhabditis elegans", "conditions": "L1 exposed 5 days", "description": "Dead or mostly immobile worms, arrested at the L1 stage, received a score of 1. Populations with severely delayed development were scored as 2. More developmentally advanced, but still obviously delayed worms were given the score of 3. Adult worms that produce a noticeably lower number of progeny received a score of 4. Healthy worms that reproduce normally (i.e., hundreds of eggs and larvae are present) were scored as 5 (see Figure C for representative images). In a typical, correctly prepared experiment, vehicle-treated populations should receive a score of 5, while worms treated with ivermectin (positive control) should receive a score of 1.\nWe attribute this discrepancy to methodological differences: in previous studies, earlier larval stages, longer exposure times, and different evaluation methods, possibly more sensitive than WMicrotracker, were used."}, "[2]": {"test_system": "mitochondrial membrane potential of C. elegans young adults", "assay": "Mitochondrial membrane potential measurement", "type": "in vivo, Caenorhabditis elegans", "conditions": "100 μM; 24 h", "description": "After 24 h, the compounds were washed away. Then, the mitochondrial membrane potential was measured using a specialized fluorescent dye (kit MAK147, Sigma-Aldrich). The kit was used according to the manufacturer’s instructions with modified incubation temperature and time (20 °C, 4 h) to account for the fact that living intact worms were used instead of cell cultures. , Dyed worms (approximately 200 per well) were distributed onto a black 96-well plate, and the fluorescence was measured using a Tecan Infinite 200 Pro plate reader.\nDetermining the mechanism of action of compounds is always challenging; however, the nature of their effect, as well as the structural similarity to compounds with known properties, can provide useful insights. One of our hypotheses was that the compounds might interfere with energy production. We based this assumption on the behavior of compound-treated worms (delayed development, lower fecundity, and relatively rapid decrease in motility rates but not necessarily death). Impaired mitochondrial function would be accompanied by a decrease in mitochondrial membrane potential (MMP)."}, "C. elegans wild-type N2": {"test_system": "C. elegans wild-type N2", "assay": "Acute motility of young adults on WMicrotracker ONE", "type": "in vivo, Caenorhabditis elegans", "conditions": "100 μM; 24 h", "description": "(§1) The effect of compounds on C. elegans N2 and SDH mutant strains was measured in a similar manner. Briefly, for evaluation of the acute effect of the compounds, age-synchronized young adults of each strain, kept in S complete medium supplemented with E. coli OP50 (3 mg/mL, fresh weight), were transferred onto microtiter plates (96-well, U bottom), and their initial motility was measured for 30 min. […] Afterward, the compounds were washed away, and worms, supplemented with fresh liquid media and food, were distributed onto 96-well plates and allowed to recover. Their activity was measured using WMicrotracker ONE at the indicated time points.\n(§2) To experimentally support this promising initial finding, we tested the effect of i-19 against several C. elegans MCII mutant strains. These nematodes carry point mutations that result in amino acid changes in regions of subunits SDHC and SDHD that contribute to the formation of the ubiquinone-binding pocket, thereby influencing its shape and the ability of inhibitors to interact with the protein. […] The compounds were tested in multiple setups. At first, young adults were exposed to higher doses (100, 50, and 10 μM) of the compounds for up to 48 h, and changes in motility were evaluated using WMicrotracker. For both compounds, we observed a less pronounced decrease in movement rates of MCII mutants compared to wild-type worms, in both a dose- and time-dependent manner (Figure )."}, "[3]": {"test_system": "C. elegans MCII mutant RP2700", "assay": "Acute motility of young adults on WMicrotracker ONE", "type": "in vivo, Caenorhabditis elegans", "conditions": "100 μM; 24 h", "description": "as §1, §2"}, "[4]": {"test_system": "C. elegans MCII mutant RP2702", "assay": "Acute motility of young adults on WMicrotracker ONE", "type": "in vivo, Caenorhabditis elegans", "conditions": "100 μM; 24 h", "description": "as §1, §2"}, "[5]": {"test_system": "C. elegans MCII mutant RP2699", "assay": "Acute motility of young adults on WMicrotracker ONE", "type": "in vivo, Caenorhabditis elegans", "conditions": "100 μM; 24 h", "description": "as §1, §2"}, "[6]": {"test_system": "C. elegans wild-type and MCII mutants", "assay": "Recovery of pretreated worms on WMicrotracker ONE", "type": "in vivo, Caenorhabditis elegans", "conditions": "5 or 10 μM for 72 h, then wash-out and recovery", "description": "Briefly, for evaluation of the acute effect of the compounds, age-synchronized young adults of each strain, kept in S complete medium supplemented with E. coli OP50 (3 mg/mL, fresh weight), were transferred onto microtiter plates (96-well, U bottom), and their initial motility was measured for 30 min. […] Afterward, the compounds were washed away, and worms, supplemented with fresh liquid media and food, were distributed onto 96-well plates and allowed to recover. Their activity was measured using WMicrotracker ONE at the indicated time points.\nC. elegans L1 larvae were exposed to 5 or 10 μM of the compounds for 72 h, after which the compounds were washed away, and the recovery of the nematodes was evaluated using WMicrotracker."}, "wild-type C. elegans": {"test_system": "wild-type C. elegans", "set-up": "method as in previously published data", "conditions": "earlier larval stages, longer exposure times; ref previously published data; cited from earlier work"}, "C. elegans N2": {"test_system": "C. elegans N2", "assay": "Scoring of developmental rates, L1 exposed 5 days", "type": "in vivo, Caenorhabditis elegans", "description": "(§3) Dead or mostly immobile worms, arrested at the L1 stage, received a score of 1. Populations with severely delayed development were scored as 2. More developmentally advanced, but still obviously delayed worms were given the score of 3. Adult worms that produce a noticeably lower number of progeny received a score of 4. Healthy worms that reproduce normally (i.e., hundreds of eggs and larvae are present) were scored as 5 (see Figure C for representative images). In a typical, correctly prepared experiment, vehicle-treated populations should receive a score of 5, while worms treated with ivermectin (positive control) should receive a score of 1. […]"}, "[7]": {"test_system": "C. elegans complex II mutant RP2699", "assay": "Scoring of developmental rates, L1 exposed 5 days", "type": "in vivo, Caenorhabditis elegans", "description": "as §3"}, "[8]": {"test_system": "C. elegans complex II mutant RP2700", "assay": "Scoring of developmental rates, L1 exposed 5 days", "type": "in vivo, Caenorhabditis elegans", "description": "as §3"}, "[9]": {"test_system": "C. elegans complex II mutant RP2702", "assay": "Scoring of developmental rates, L1 exposed 5 days", "type": "in vivo, Caenorhabditis elegans", "description": "as §3"}}, "data": [{"smiles": "O=C(NCCc1ncc(C(F)(F)F)cc1Cl)c1ccccc1C(F)(F)F", "note": "[fluopyram, reference compound]", "values": [{"measurement": "concentrations at which all strains were severely affected", "setting": "[1]", "result": "> 6.25", "unit": "µM"}, {"measurement": "MMP signal lower than in vehicle-treated control animals", "setting": "[2]", "result": "~85", "unit": "%"}, {"measurement": "decrease of mean activity counts", "setting": "C. elegans wild-type N2", "result": 60, "unit": "%"}, {"measurement": "decrease of mean activity counts", "setting": "[3]", "result": 16, "unit": "%"}, {"measurement": "decrease of mean activity counts", "setting": "[4]", "result": 28, "unit": "%"}, {"measurement": "decrease of mean activity counts", "setting": "[5]", "result": 53, "unit": "%"}, {"measurement": "resistance of MCII mutants compared to wild-type", "setting": "[6]", "result": "increased resistance of the MCII mutants"}, {"measurement": "concentrations that strongly affect wild-type C. elegans", "setting": "wild-type C. elegans", "result": "below 1 μM"}, {"measurement": "mean score (1-5)", "setting": "C. elegans N2; 0.012 µM", "result": 4.667}, {"measurement": "mean score (1-5)", "setting": "C. elegans N2; 0.024 µM", "result": 4.333}, {"measurement": "mean score (1-5)", "setting": "C. elegans N2; 0.049 µM", "result": 3.667}, {"measurement": "mean score (1-5)", "setting": "C. elegans N2; 0.195 µM", "result": 2.778}, {"measurement": "mean score (1-5)", "setting": "C. elegans N2; 0.391 µM", "result": 2}, {"measurement": "mean score (1-5)", "setting": "C. elegans N2; 0.781 µM", "result": 1}, {"measurement": "mean score (1-5)", "setting": "C. elegans N2; 1.563 µM", "result": 1}, {"measurement": "mean score (1-5)", "setting": "C. elegans N2; 3.125 µM", "result": 1}, {"measurement": "mean score (1-5)", "setting": "C. elegans N2; 6.25 µM", "result": 1}, {"measurement": "mean score (1-5)", "setting": "C. elegans N2; 12.5 µM", "result": 1}, {"measurement": "mean score (1-5)", "setting": "C. elegans N2; 25 µM", "result": 1}, {"measurement": "mean score (1-5)", "setting": "C. elegans N2; 50 µM", "result": 1}, {"measurement": "mean score (1-5)", "setting": "C. elegans N2; 100 µM", "result": 1}, {"measurement": "mean score (1-5)", "setting": "[7]; 0.012 µM", "result": 4.667}, {"measurement": "mean score (1-5)", "setting": "[7]; 0.024 µM", "result": 4.444}, {"measurement": "mean score (1-5)", "setting": "[7]; 0.049 µM", "result": 4}, {"measurement": "mean score (1-5)", "setting": "[7]; 0.195 µM", "result": 4.556}, {"measurement": "mean score (1-5)", "setting": "[7]; 0.391 µM", "result": 4.444}, {"measurement": "mean score (1-5)", "setting": "[7]; 0.781 µM", "result": 3.889}, {"measurement": "mean score (1-5)", "setting": "[7]; 1.563 µM", "result": 3.111}, {"measurement": "mean score (1-5)", "setting": "[7]; 3.125 µM", "result": 3.333}, {"measurement": "mean score (1-5)", "setting": "[7]; 6.25 µM", "result": 1.222}, {"measurement": "mean score (1-5)", "setting": "[7]; 12.5 µM", "result": 1}, {"measurement": "mean score (1-5)", "setting": "[7]; 25 µM", "result": 1}, {"measurement": "mean score (1-5)", "setting": "[7]; 50 µM", "result": 1.222}, {"measurement": "mean score (1-5)", "setting": "[7]; 100 µM", "result": 1}, {"measurement": "mean score (1-5)", "setting": "[8]; 0.012 µM", "result": 5}, {"measurement": "mean score (1-5)", "setting": "[8]; 0.024 µM", "result": 5}, {"measurement": "mean score (1-5)", "setting": "[8]; 0.049 µM", "result": 5}, {"measurement": "mean score (1-5)", "setting": "[8]; 0.195 µM", "result": 4.778}, {"measurement": "mean score (1-5)", "setting": "[8]; 0.391 µM", "result": 4.444}, {"measurement": "mean score (1-5)", "setting": "[8]; 0.781 µM", "result": 3.556}, {"measurement": "mean score (1-5)", "setting": "[8]; 1.563 µM", "result": 3.667}, {"measurement": "mean score (1-5)", "setting": "[8]; 3.125 µM", "result": 2.444}, {"measurement": "mean score (1-5)", "setting": "[8]; 6.25 µM", "result": 1.222}, {"measurement": "mean score (1-5)", "setting": "[8]; 12.5 µM", "result": 1}, {"measurement": "mean score (1-5)", "setting": "[8]; 25 µM", "result": 1.333}, {"measurement": "mean score (1-5)", "setting": "[8]; 50 µM", "result": 1}, {"measurement": "mean score (1-5)", "setting": "[8]; 100 µM", "result": 1}, {"measurement": "mean score (1-5)", "setting": "[9]; 0.012 µM", "result": 5}, {"measurement": "mean score (1-5)", "setting": "[9]; 0.024 µM", "result": 5}, {"measurement": "mean score (1-5)", "setting": "[9]; 0.049 µM", "result": 5}, {"measurement": "mean score (1-5)", "setting": "[9]; 0.195 µM", "result": 4.889}, {"measurement": "mean score (1-5)", "setting": "[9]; 0.391 µM", "result": 4.667}, {"measurement": "mean score (1-5)", "setting": "[9]; 0.781 µM", "result": 4.111}, {"measurement": "mean score (1-5)", "setting": "[9]; 1.563 µM", "result": 3.556}, {"measurement": "mean score (1-5)", "setting": "[9]; 3.125 µM", "result": 3.111}, {"measurement": "mean score (1-5)", "setting": "[9]; 6.25 µM", "result": 2.333}, {"measurement": "mean score (1-5)", "setting": "[9]; 12.5 µM", "result": 1}, {"measurement": "mean score (1-5)", "setting": "[9]; 25 µM", "result": 1}, {"measurement": "mean score (1-5)", "setting": "[9]; 50 µM", "result": 1}, {"measurement": "mean score (1-5)", "setting": "[9]; 100 µM", "result": 1}]}]}
